# Legend:
# [1] = test system: non-small cell lung cancer A549 xenograft tumors; test: In vivo tumor-inhibitory activity of DOC-AI, A549 xenograft; set-up: species or system BALB/c nude mice; conditions: 6.20 µmol/Kg, 4 days on, 3 days off until day 21
# Protocol: Non-small cell lung cancer A549 cells in the vigorous growth stage were taken and inoculated subcutaneously into the right axilla of BALB/c nude mice (Nanjing Zhonghua Biotechnology Co., Ltd.) under sterile conditions, with a cell inoculation amount of 1×10^7. The diameter of transplanted tumors in nude mice was measured with a vernier caliper. When the tumors grew to approximately 50 mm^3, 30 tumor-bearing nude mice with good growth status and relatively uniform tumor size were selected and divided into 5 groups, with 6 mice in each group. The administration frequency was continuous administration for 4 days followed by an interval of 3 days, and this cycle was repeated until day 21. […] The tumor diameter was measured every other day, and the body weight of the nude mice was weighed simultaneously during the measurement of the tumor diameter. After 21 days of administration, the nude mice were euthanized, the tumor inhibition rate (%) was calculated, and the tumor masses were peeled off and weighed.
# [2] = test system: gastric cancer MKN45 xenograft tumors; test: In vivo tumor-inhibitory activity of DOC-AI, MKN45 xenograft; set-up: species or system BALB/c nude mice; conditions: 6.20 µmol/Kg
# Protocol: (§1) Non-small cell lung cancer A549 cells and human gastric cancer MKN-45 cells were preserved in F12-K medium containing 10% fetal bovine serum and 1% penicillin + streptomycin, and incubated at 37°C with 5% CO2 and 95% humidity. The aforementioned cells were cultured in T175 flasks with an experimental cell density of 80%. The aforementioned cell lines were mycoplasma-negative. Both A549 cells and MKN-45 cells were provided by Nanjing Anji Biotechnology Co., Ltd.
# Gastric cancer MKN45 cells in the vigorous growth stage were taken and inoculated subcutaneously into the right axilla of BALB/c nude mice (Hangzhou Ziyuan Laboratory Animal Technology Co., Ltd.) under sterile conditions, with a cell inoculation amount of 1×10^7. The diameter of transplanted tumors in nude mice was measured with a vernier caliper. When the tumors grew to approximately 50 mm^3, 18 tumor-bearing nude mice with good growth status and relatively uniform tumor size were selected and divided into 3 groups, with 6 mice in each group. The administration frequency was once every 3 days, and this cycle was repeated until day 21. The anti-tumor effect in the nude mice was dynamically observed by measuring the tumor diameter. The tumor diameter was measured every other day, and the body weight of the nude mice was weighed simultaneously during the measurement of the tumor diameter. After 21 days of administration, the nude mice were euthanized, the tumor inhibition rate (%) was calculated, and the tumor masses were peeled off and weighed. Table 7 Results of Detection of In Vivo Tumor-Inhibitory Activity of DOC-AI
# [3] = test system: SK-mel-2 (human malignant melanoma cells); test: Tumor cell proliferation inhibition (CCK8); assay type: cell-based; conditions: 72 h
# Text: (§2) Human highly metastatic hepatocellular carcinoma cells HCCLM3, human highly metastatic gastric cancer cells MKN45, human gastric cancer cells BGC-823 and MGC-803, non-small cell lung cancer cells A549, human pancreatic cancer cells ASPC-1, human colon cancer cells LoVo, human ovarian cancer cells A2780, human cervical cancer cells SiHa, human malignant melanoma cells SK-mel-2 and M14, human osteosarcoma cells Saos-2, human bladder transitional cell carcinoma cells T24, human brain glioblastoma cells U87-MG, human lymphoma cells Raji, and human epidermal cancer cells A431 were selected for the experiment. Among them, HCCLM3 cells, MKN45 cells, BGC-823 cells, MGC-803 cells, A431 cells and A549 cells were provided by Nanjing Anji Biotechnology Co., Ltd., and the other cells were provided by Nanjing Ouji Pharmaceutical Technology Service Co., Ltd.
# (§3) The aforementioned tumor cells were preserved in a medium containing 10% fetal bovine serum and 1% penicillin-streptomycin, and incubated at 37°C with 5% CO2 and 95% humidity. The aforementioned tumor cells were cultured in T75 flasks with an experimental cell density of 80%. The aforementioned tumor cell lines were mycoplasma-negative.
# (§4) Tumor cells in the logarithmic growth phase were taken for the experiment. The cells were digested, counted, and prepared into a cell suspension with a concentration of 1×10^5 cells/mL, which was then inoculated into a 96-well plate (100 µL per well). The 96-well plate was incubated in a 37°C, 5% CO2 incubator for 24 hours. […] After incubating the plate in the incubator for 72 h, the cell morphology of each group was observed under a microscope. Then, 10 µL of CCK8 solution (Nanjing Enjing Biotechnology Co., Ltd.) was added to each well, and the plate was further incubated in the cell incubator for 4 h. After incubation, the absorbance was measured at 450 nm, and the tumor cell proliferation inhibition rate was calculated. The efficiency ratio was the ratio of the IC50 value of the free drug to that of the polypeptide conjugate. Table 1 Tumor cell proliferation inhibition rates of polypeptide conjugates
# [4] = test system: A549 (non-small cell lung cancer cells); test: Tumor cell proliferation inhibition (CCK8); assay type: cell-based; conditions: Homo sapiens, 72 h
# Text: as §2, §3, §4
# [5] = test system: M14 (human malignant melanoma cells); test: Tumor cell proliferation inhibition (CCK8); assay type: cell-based; conditions: 72 h
# Text: as §2, §3, §4
# [6] = test system: U87-MG (human brain glioblastoma cells); test: Tumor cell proliferation inhibition (CCK8); assay type: cell-based; conditions: U-87 MG, 72 h
# Text: as §2, §3, §4
# [7] = test system: LoVo (human colon cancer cells); test: Tumor cell proliferation inhibition (CCK8); assay type: cell-based; conditions: 72 h
# Text: as §2, §3, §4
# [8] = test system: HCCLM3 (human highly metastatic hepatocellular carcinoma cells); test: Tumor cell proliferation inhibition (CCK8); assay type: cell-based; conditions: 72 h
# Text: as §2, §3, §4
# [9] = test system: ASPC-1 (human pancreatic cancer cells); test: Tumor cell proliferation inhibition (CCK8); assay type: cell-based; conditions: ASPC1, 72 h
# Text: as §2, §3, §4
# [10] = test system: SiHa (human cervical cancer cells); test: Tumor cell proliferation inhibition (CCK8); assay type: cell-based; conditions: 72 h
# Text: as §2, §3, §4
# [11] = Solubility in water (HPLC, saturated solution); assay type: physicochemical; conditions: thermodynamic from solid, in water (ultrapure)
# Protocol: 25, 50, 100, 200, 300, and 400 µL of the above stock solutions were precisely measured, added into 1 mL volumetric flasks, and diluted to the mark with methanol to obtain a series of standard solutions with concentrations of 25, 50, 100, 200, 300, and 400 µg/mL, respectively. The peak areas of the series of standard solutions were detected by HPLC (mobile phase: 0.065% TFA in water + 0.05% TFA; chromatographic column: YMC-Triart C18; wavelength: 220 nm) to construct a concentration-peak area standard curve, where the abscissa represents concentration and the ordinate represents peak area.
# The peak area of the sample was detected by HPLC, and its saturation in water was calculated through the concentration-peak area standard curve. Table 6 Results of detection of solubility of polypeptide conjugates in water
# [12] = test system: MGC-803 (human gastric cancer cells); test: Tumor cell proliferation inhibition (CCK8); assay type: cell-based; conditions: 72 h
# Text: as §2, §3
# as §4, with “h.” for “h. After incubation, the absorbance was measured at 450 nm, and the tumor cell proliferation inhibition rate was calculated. The efficiency ratio was the ratio of the IC50 value of the free drug to that of the polypeptide conjugate. Table 1 Tumor cell proliferation inhibition rates of polypeptide conjugates”
# [13] = test system: T24 (human bladder transitional cell carcinoma cells); test: Tumor cell proliferation inhibition (CCK8); assay type: cell-based; conditions: 72 h
# Text: as §2, §3
# as §4, with “h.” for “h. After incubation, the absorbance was measured at 450 nm, and the tumor cell proliferation inhibition rate was calculated. The efficiency ratio was the ratio of the IC50 value of the free drug to that of the polypeptide conjugate. Table 1 Tumor cell proliferation inhibition rates of polypeptide conjugates”
# [14] = test system: MKN45 (human highly metastatic gastric cancer cells); test: Tumor cell proliferation inhibition (CCK8); assay type: cell-based; conditions: MKN-45, 72 h
# Text: as §2, §3
# as §4, with “h.” for “h. After incubation, the absorbance was measured at 450 nm, and the tumor cell proliferation inhibition rate was calculated. The efficiency ratio was the ratio of the IC50 value of the free drug to that of the polypeptide conjugate. Table 1 Tumor cell proliferation inhibition rates of polypeptide conjugates”
# [15] = test system: Saos-2 (human osteosarcoma cells); test: Tumor cell proliferation inhibition (CCK8); assay type: cell-based; conditions: 72 h
# Text: as §2, §3
# as §4, with “h.” for “h. After incubation, the absorbance was measured at 450 nm, and the tumor cell proliferation inhibition rate was calculated. The efficiency ratio was the ratio of the IC50 value of the free drug to that of the polypeptide conjugate. Table 1 Tumor cell proliferation inhibition rates of polypeptide conjugates”
# [16] = test system: A431 (human epidermal cancer cells); test: Tumor cell proliferation inhibition (CCK8); assay type: cell-based; conditions: A-431, 72 h
# Text: as §2, §3
# as §4, with “h.” for “h. After incubation, the absorbance was measured at 450 nm, and the tumor cell proliferation inhibition rate was calculated. The efficiency ratio was the ratio of the IC50 value of the free drug to that of the polypeptide conjugate. Table 1 Tumor cell proliferation inhibition rates of polypeptide conjugates”
# [17] = test system: Raji (human lymphoma cells); test: Tumor cell proliferation inhibition (CCK8); assay type: cell-based; conditions: 72 h
# Text: as §2, §3
# as §4, with “h.” for “h. After incubation, the absorbance was measured at 450 nm, and the tumor cell proliferation inhibition rate was calculated. The efficiency ratio was the ratio of the IC50 value of the free drug to that of the polypeptide conjugate. Table 1 Tumor cell proliferation inhibition rates of polypeptide conjugates”
# [18] = test system: A2780 (human ovarian cancer cells); test: Tumor cell proliferation inhibition (CCK8); assay type: cell-based; conditions: 72 h
# Text: as §2, §3
# as §4, with “h.” for “h. After incubation, the absorbance was measured at 450 nm, and the tumor cell proliferation inhibition rate was calculated. The efficiency ratio was the ratio of the IC50 value of the free drug to that of the polypeptide conjugate. Table 1 Tumor cell proliferation inhibition rates of polypeptide conjugates”
# [19] = test system: BGC-823 (human gastric cancer cells); test: Tumor cell proliferation inhibition (CCK8); assay type: cell-based; conditions: 72 h
# Text: as §2, §3
# as §4, with “h.” for “h. After incubation, the absorbance was measured at 450 nm, and the tumor cell proliferation inhibition rate was calculated. The efficiency ratio was the ratio of the IC50 value of the free drug to that of the polypeptide conjugate. Table 1 Tumor cell proliferation inhibition rates of polypeptide conjugates”
# [20] = test system: human gastric cancer cell MKN45 xenograft tumors; test: In vivo tumor-inhibitory activity of PTX-AI, MKN45 xenograft; set-up: species or system BALB/c nude mice; conditions: 5.28 µmol/Kg, once every 3 days, 21 days
# Protocol: as §1
# Human gastric cancer cells MKN-45 in the vigorous growth stage were taken and inoculated subcutaneously into the right axilla of BALB/c nude mice under sterile conditions, with a cell inoculation amount of 5×10^6. The diameter of transplanted tumors in nude mice was measured with a vernier caliper. When the tumors grew to approximately 50mm^3, […] tumor-bearing nude mice with good growth status and relatively uniform tumor size were selected, and divided into 6 groups, including 10 mice in the model group and 8 mice in each of the remaining groups. The anti-tumor effect of the test substance was dynamically observed by measuring the tumor diameter. The tumor diameter was measured every other day, and the body weight of the nude mice was weighed simultaneously during the measurement of the tumor diameter. After 21 days of administration, the nude mice were euthanized, the tumor inhibition rate (%) was calculated, and the tumor masses were peeled off and weighed. Table 3 Detection of In Vivo Tumor-Inhibitory Activity of PTX-AI
# [21] = test system: MGC-803 (human gastric cancer cells); test: Tumor cell proliferation inhibition (CCK8); assay type: cell-based; conditions: IC50 of free drug / IC50 of polypeptide conjugate
# Text: as §2, §3, §4
# [22] = test system: MKN45 (human highly metastatic gastric cancer cells); test: Tumor cell proliferation inhibition (CCK8); assay type: cell-based; conditions: IC50 of free drug / IC50 of polypeptide conjugate
# Text: as §2, §3, §4
# [23] = test system: A431 (human epidermal cancer cells); test: Tumor cell proliferation inhibition (CCK8); assay type: cell-based; conditions: IC50 of free drug / IC50 of polypeptide conjugate
# Text: as §2, §3, §4
# [24] = test system: BGC-823 (human gastric cancer cells); test: Tumor cell proliferation inhibition (CCK8); assay type: cell-based; conditions: IC50 of free drug / IC50 of polypeptide conjugate
# Text: as §2, §3, §4
# [25] = MKN45 xenograft, once every 3 days until day 21
smiles,measurement,setting,value
"CC(=O)O[C@@]12CO[C@@H]1C[C@H](O)[C@@]1(C)C(=O)[C@H](O)C3=C(C)[C@@H](OC(=O)[C@H](O)[C@@H](NC(=O)OC(C)(C)C)c4ccccc4)C[C@@](O)([C@@H](OC(=O)c4ccccc4)[C@H]21)C3(C)C [DOC, docetaxel]",Tumor Inhibition Rate,[1],59.55%
same,Tumor Weight,[1],283.00 ± 179.83 mg
same,body weight changes,"[2]; MKN45 xenograft nude mice, during the administration period",showed weight loss
same,Tumor Inhibition Rate,[2]; [25],73.76±13.15%
same,Tumor Weight,[2]; [25],579 ± 391 mg
same,Final Tumor Volume,"[2]; MKN45 xenograft, once every 3 days until day 21, in mm³ (unit assumed)",256.67±391.25
same,IC50,[3],0.214 nM
same,IC50,[4],33.5 nM
same,IC50,[5],3.68 nM
same,IC50,[6],5.4 nM
same,IC50,[7],992 nM
same,IC50,[8],431 nM
same,IC50,[9],4.35 nM
same,IC50,[10],0.235 nM
same,solubility at 15 min,[11],0.0274 µg/mL
"CC(=O)O[C@H]1C(=O)[C@@]2(C)[C@H]([C@H](OC(=O)c3ccccc3)[C@]3(O)C[C@H](OC(=O)[C@H](O)[C@@H](NC(=O)c4ccccc4)c4ccccc4)C(C)=C1C3(C)C)[C@]1(OC(C)=O)CO[C@@H]1C[C@@H]2O [PTX, paclitaxel]",IC50,[12],23.6 nM
same,IC50,[13],38.6 nM
same,IC50,[14],3.21 nM
same,IC50,[15],0.77 nM
same,IC50,[16],0.17 nM
same,IC50,[17],43.9 nM
same,IC50,[18],0.19 nM
same,IC50,[19],8.11 nM
same,Tumor Inhibition Rate,[20],47.6%
same,Tumor Weight,[20],0.791 ± 0.151 g
same,Final Tumor Volume,[20]; in mm³ (unit assumed),782.0±105.9
same,IC50,[8],9.4 nM
same,solubility at 15 min,[11],0.12 µg/mL
CC(=O)O[C@H]1C(=O)[C@@]2(C)[C@H]([C@H](OC(=O)c3ccccc3)[C@]3(O)C[C@H](OC(=O)[C@H](OC(=O)CCCC(=O)N[C@@H](CCCNC(=N)N)C(=O)N[C@@H](CO)C(=O)N4CCC[C@H]4C(=O)N[C@@H](Cc4ccc(O)cc4)C(=O)N[C@@H](C)C(=O)N[C@@H](CC(N)=O)C(=O)N[C@@H](CO)C(=O)O)[C@@H](NC(=O)c4ccccc4)c4ccccc4)C(C)=C1C3(C)C)[C@]1(OC(C)=O)CO[C@@H]1C[C@@H]2O [PTX-5-AI],Efficiency Ratios,[21],1.27
same,Efficiency Ratios,[22],1.65
same,Efficiency Ratios,[23],2.13
same,Efficiency Ratios,[24],1.90
